Where two headings read alike, the source gives them in different places.
Columns and labels:
[1] = system: Mycosphaerella graminicola; Anamorph: Septoria tritici; assay: Leaf Blotch of Wheat fungicidal activity (SEPTTR); assay type: in vivo; conditions: Zymoseptoria tritici; for pest or weed control at 100 ppm: rate 100 ppm; for pest or weed control at 121.5 g/ha: rate 121.5 g/H
In short: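 Acetone solutions diluted with nine volumes of water containing 110 ppm Triton X-100, sprayed to run-off on first-leaf wheat seedlings (Yuma), inoculated with S. tritici before or after treatment. Plants held in dew chambers, then in a 20 °C greenhouse. Disease severity (0–100%) scored when untreated plants fully symptomatic; % control relative to untreated.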

Puccinia triticina = assay: Wheat Brown Rust fungicidal activity (PUCCRT); assay type: in vivo; conditions: Puccinia triticina; for pest or weed control at 100 ppm: rate 100 ppm; for pest or weed control at 121.5 g/ha: rate 121.5 g/H
In short: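 Yuma wheat seedlings at first-leaf stage sprayed to run-off (acetone solution in water with 110 ppm Triton X-100) or track-sprayed as EC with 0.1% Trycol 5941; inoculated with P. triticina spores before or after treatment. Overnight dark dew at 22° C., then greenhouse 24° C.; disease severity 0–100% gives percent control vs untreated.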

Phakopsora pachyrhizi = assay: Asian Soybean Rust fungicidal activity (PHAKPA); assay type: in vivo; conditions: 25 ppm; for Disease Control PHAKPA 1DP: 1 Day Protectant; for Disease Control PHAKPA 3DC: 3 Day Curative
Experimental: Evaluation of Fungicidal Activity: Asian Soybean Rust (Phakopsora pachyrhizi; Bayer Code PHAKPA)
Technical grades of materials were dissolved in acetone, which were then mixed with nine volumes of water containing 0.011% Tween 20. The fungicide solutions were applied onto soybean seedlings using an automated booth sprayer to run-off. All sprayed plants were allowed to air dry prior to further handling.
Soybean plants (variety Williams 82) were grown in soil-less Metro mix, with one plant per pot. Two weeks old seedlings were used for testing. Plants were inoculated either 3 days prior to or 1 day after fungicide treatments. Plants were incubated for 24 h in a dark dew room at 22° C. and 100% RH then transferred to a growth room at 23° C. for disease to develop. Disease severity was assessed on the sprayed leaves.

[2] = 24 h, 1 Day Protectant, read-out: Disease control SEPTTR 1DP
[3] = 72 h, 3 Day Curative, read-out: Disease control SEPTTR 3DC
[4] = 24 h, 1 Day Protectant, read-out: Disease control PUCCRT 1DP
[5] = 72 h, 3 Day Curative, read-out: Disease control PUCCRT 3DC

## COc1ccnc(C(=O)N[C@H]2COC[C@H](CCC(C)C)[C@@H](OCC(C)C)[C@H](C)OC2=O)c1OCOC(C)=O [Compound F106]
[1]; [2]
  pest or weed control at 100 ppm: 80 to 100%
  pest or weed control at 121.5 g/ha: 80 to 100%
[1]; [3]
  pest or weed control at 100 ppm: 80 to 100%
  pest or weed control at 121.5 g/ha: 80 to 100%
Puccinia triticina; [4]
  pest or weed control at 100 ppm: 80 to 100%
  pest or weed control at 121.5 g/ha: 80 to 100%
Puccinia triticina; [5]
  pest or weed control at 100 ppm: 80 to 100%
  pest or weed control at 121.5 g/ha: 80 to 100%
Phakopsora pachyrhizi
  Disease Control PHAKPA 1DP: A (80-100)
  Disease Control PHAKPA 3DC: A (80-100)

## COc1ccnc(C(=O)N[C@H]2COC[C@H](Cc3cc(F)c(F)c(F)c3)[C@@H](OCC(C)C)[C@H](C)OC2=O)c1OCOC(C)=O [Compound F109]
[1]; [2]
  pest or weed control at 100 ppm: 80 to 100%
  pest or weed control at 121.5 g/ha: 80 to 100%
[1]; [3]
  pest or weed control at 100 ppm: 80 to 100%
  pest or weed control at 121.5 g/ha: 80 to 100%
Puccinia triticina; [4]
  pest or weed control at 100 ppm: 80 to 100%
  pest or weed control at 121.5 g/ha: 80 to 100%
Puccinia triticina; [5]
  pest or weed control at 100 ppm: 80 to 100%
  pest or weed control at 121.5 g/ha: 80 to 100%
Phakopsora pachyrhizi
  Disease Control PHAKPA 1DP: A (80-100)
  Disease Control PHAKPA 3DC: B (More than 0-Less than 80)

## CCCCCO[C@@H]1[C@@H](Cc2ccc(Cl)cc2Cl)COC[C@H](NC(=O)c2nccc(OC)c2OCOC(C)=O)C(=O)O[C@H]1C [Compound F112]
other
  melting point: 53 to 57 °C
[1]; [2]
  pest or weed control at 121.5 g/ha: 80 to 100%
[1]; [3]
  pest or weed control at 121.5 g/ha: 80 to 100%
Puccinia triticina; [4]
  pest or weed control at 121.5 g/ha: 80 to 100%
Puccinia triticina; [5]
  pest or weed control at 121.5 g/ha: 0 to 80%

## COc1ccnc(C(=O)N[C@H]2COC[C@H](Cc3ccc(Cl)cc3Cl)[C@@H](OC(=O)C(C)C)[C@H](C)OC2=O)c1OCOC(=O)C(C)C [Compound F119]
other
  melting point: 57 to 60 °C
[1]; [2]
  pest or weed control at 100 ppm: 80 to 100%
[1]; [3]
  pest or weed control at 100 ppm: 80 to 100%
Puccinia triticina; [4]
  pest or weed control at 100 ppm: 80 to 100%
Puccinia triticina; [5]
  pest or weed control at 100 ppm: 80 to 100%
